In US20050074879A1, “Antisense oligonucleotide modulation of STAT3 expression” (priority 2000, published 2005):
Oligonucleotides are written 5' to 3', each unit as a sugar letter and its base; * is a phosphorothioate linkage, no mark a phosphodiester; rarer units and linkages stand in square brackets, end groups in braces. Plain capitals give the bases only. e = 2'-O-(2-methoxyethyl) (MOE); [5mC] = 5-methylcytosine; d = 2'-deoxy (DNA)

Columns and labels:
[1] = tested on: Human STAT3 mRNA; test: Inhibition of human STAT3 mRNA expression in U266 cells, Northern blot; type: cell-based; settings: for STAT3 mRNA expression in U266 cells (in words): following electroporation, Northern blotting
Experimental: U266 human myeloma cell lines (originally obtained from American Type Culture Collection) were maintained in RPMI 1640 medium supplemented with 10% fetal calf serum. Cells (15×10^6 cells in PBS) were transfected with oligonucleotides at 200V with a single 6-millisecond pulse using a BTX Electro Square Porator T820 (Genetronics, San Diego Calif.). The cells were incubated for 24 hours before RNA extraction.
Total cellular RNA was isolated using the Rneasy kit (Qiagen, Santa Clarita, Calif.). Northern blotting was perfomed on 15 μg of RNA using a cDNA probe prepared from MB-MDA 468 RNA by standard RT-PCR followed by a nested primer reaction. Signals were quantitated using a Molecular Dynamics Phosphorimager.
In order to examine the importance of STAT3 expression in multiple myeloma cells, a series of 20mer STAT3 antisense oligonucleotides were designed and synthesized, using phosphorothioate chemistry and incorporating 2′-O-methoxyethyl modifications to improve hybridization affinity and nuclease resistance.

[2] = tested on: LNCaP human prostatic carcinoma xenograft; test: LNCaP mouse model of prostate carcinoma: tumor volume and serum PSA in castrated nude mice; type: in vivo; settings: 10 mg/kg intraperitoneally, up to 10 weeks post-castration
Experimental: The LNCaP murine model of human prostate carcinoma is described in Kiyama et al., Cancer Res. 63:3575-3584, 2003, incorporated herein by reference. Briefly, LNCaP human prostatic carcinoma cells were cultured and maintained in RPMI medium (Life Technologies, Inc., Carlsbad, Calif.) supplemented with 5% heat inactivated fetal calf serum (FCS). About 1×10^6 LNCaP cells were inoculated subcutaneously with 0.1 ml of Matrigel (Becton Dickinson Labware, Franklin Lakes, N.J.) in the flank region of 6-8 week old male athymic nude mice (Harlan Sprague Dawley, Inc., Indianapolis, Ind.) via a 27 gauge needle under methoxyfluorane anesthesia. Mice bearing tumors between 300 and 500 mm^3 in volume were castrated via a scrotal approach and randomly assigned to treatment with 10 mg/kg of either ISIS 113176 human antisense or ISIS 129987 human mismatch control STAT 3 oligonucleotide intraperitoneally five times per week for the first week followed by three times per week thereafter. Treatment commenced beginning one day after castration. […] Tumor volumes were calculated by the formula L×W×H×0.5236 (Gleave et al., Cancer Res. 51:1598-1605, 1992). Blood samples were obtained from tail vein incisions of mice, and serum PSA levels were determined by an enzymatic immunoassay kit with a lower limit of sensitivity of 0.2 μg/liter (Abbott IMX, Montreal, Quebec, Canada) according to the manufacturer's protocol.

[3] = tested on: LGL leukemic cells; test: Sensitization of LGL cells to Fas-mediated apoptosis, flow cytometry; type: cell-based, human
Experimental: LGL leukemic cells were obtained from patients who met the clinical criteria of T cell (CD3+) LGL leukemia with increased LGL counts and clonal TCR gene rearrangements. All patients had chronic disease not requiring treatment at the time of analysis. Purified leukemic LGL cells were placed in 24-well plates at a concentration of 2×10^6/0.5 mL of complete medium (RPMI-1640 medium supplemented with 10% fetal bovine serum, 2 mM L-glutamine, 10 U/mL penicillin, and 100 ug/mL streptomycin, all from Gibco Life Technologies, Gaithersburg, Md.). Cells were incubated with either ISIS 17148 antisense oligonucleotide (SEQ ID NO: 95) or the control, ISIS 16094 (SEQ ID NO: 152). Antisense oligonucleotide delivery to LGL leukemic cells was by passive uptake and no transfection reagents were included in the reaction.
Extracts of LGL cells treated with antisense oligonucleotides (1 uM dosing for ISIS 17148 and the control) from three patients were obtained and assayed for STAT3 protein levels by Western blot. Sensitization of the LGL cells to Fas-mediated apoptosis was also measured by flow cytometry in cells treated with antisense oligonucleotides at doses of 1, 2 and 5 uM. By Western analysis, a reduction in STAT3 protein levels ranged from 25 to 45%. […] Levels of apoptosis in control oligonucleotide treated cells remained at 6% at all doses.

[4] = tested on: U266 multiple myeloma cells; test: Apoptosis of U266 cells, Annexin-V staining, flow cytometry; type: cell-based, human
Experimental: U266 cells (ATCC, Bethesda, Md.) were cultured in RPMI 1640 medium supplemented with 10% heat-inactivated fetal bovine serum (Sigma Chemical Company, St. Louis, Mo.), 10 mM Hepes, pH 7.2, […] 2-ME, 2mM L-glutamine, 100 U/ml penicillin, and 100 µg/ml streptomycin (Gibco, Grand Island, N.Y.).
2′-O-methoxyethylribose modified phosphorothioate oligonucleotides were synthesized on an automated DNA synthesizer (Applied Biosystems model 380B), as described above. Chimeric oligonucleotides were employed in these studies; the chimeric oligonucleotides contain 2′-O-methoxyethyl modified residues flanking a 2′-deoxynucleotide/phosphorothioate region (gap) that supports RNase H activation. Oligonucleotides were analyzed by capillary gel electrophoresis and judged to be at least 85% full-length material. U266 (1×10^7 cells in PBS) were transfected with oligonucleotides by electroporation, at 175V, 1000 μF using a BTX Electro Cell Manipulator 600 (Genetronics, San Diego, Calif.).
10×10^6 U266 cells were electroporated with oligonucleotides and cultured for 48 hours before analysis of phosphatidylserine expression was performed as a measure of apoptosis using the Annexin-V staining kit (Clontech, Palo Alto, Calif.) according to the manufacturer's instructions. […] The samples were then diluted with FacsFlow buffer and analyzed on a Becton Dickinson FACScan (Mountain View, Calif.).

[5] = tested on: Human STAT3 mRNA; test: STAT3 mRNA in A549 cells treated with dsRNAs (duplex antisense compounds), real-time PCR PPS 199 (Table 22); type: cell-based; settings: treated 4 hours, harvested 16 hours later, − decrease, + increase vs untreated control
Experimental: When cells reached 80% confluency, they are treated with duplexed antisense compounds of the invention. For cells grown in 96-well plates, wells are washed once with […] OPTI-MEM-1 reduced-serum medium (Gibco BRL) and then treated with 130 μL of OPTI-MEM-1 containing 12 μg/mL LIPOFECTIN (Gibco BRL) and the desired duplex antisense compound at a final concentration of 200 nM (a ratio of 6 μg/mL LIPOFECTIN per 100 nM duplex antisense compound). After 5 hours of treatment, the medium is replaced with fresh medium. Cells are harvested 16 hours after treatment, at which time RNA is isolated and target reduction measured by RT-PCR.
The compounds in Table 21 were tested for their effects on human STAT3 expression in A549 cells. ISIS 330249 targets the same site as the antisense oligonucleotid ISIS 106734 (SEQ ID NO: 45) and ISIS 330247 targets the same site as the antisense oligonucleotide ISIS 113176 (SEQ ID NO: 115); thus, ISIS 106734 and ISIS 113176 were also tested. A549 cells were treated with oligonucleotide mixed with LIPOFECTIN (Invitrogen Corporation, Carlsbad, Calif.) as described herein. The control oligonucleotide used was ISIS 129698 ([…], SEQ ID NO: 402). Cells were treated with oligonucleotide for 4 hours and harvested an additional 16 hours later. Untreated cells served as a control.
Human STAT3 mRNA expression levels were quantitated by real-time PCR using primer probe set PPS 199 and gene target quantities were normalized using Ribogreen as described in other examples herein. A “−” or “+” designation indicates a decrease or increase of STAT 3 mRNA expression, respectively, relative to untreated control cells. Where present, “N.D.” indicates not determined.

Substance	STAT3 mRNA expression in U266 cells (in words) [1]	induction of serum PSA levels [2]	tumor growth [2]	percent specific apoptosis ([3]; 1 uM, untreated cells 5%) [%]	percent specific apoptosis ([3]; 2 uM) [%]	percent specific apoptosis ([3]; 5 uM) [%]	annexin V staining (in words) [4]	Percent inhibition of STAT3 expression ([1]; Oligo concentration 2.5 μM) [%]	Percent inhibition of STAT3 expression ([1]; Oligo concentration 5 μM) [%]	Percent inhibition of STAT3 expression ([1]; Oligo concentration 10 μM) [%]	% mRNA INHIBITION ([1]; U266 cells, 2.5 μM oligonucleotide, electroporation, 24 hours) [%]	% mRNA EXPRESSION ([1]; U266 cells, 2.5 μM oligonucleotide, electroporation, 24 hours, percent of control) [%]	Percent change in STAT3 mRNA expression in A549 cells by duplex antisense compounds ([5]; 12.5 nM oligonucleotide)	Percent change in STAT3 mRNA expression in A549 cells by duplex antisense compounds ([5]; 25 nM oligonucleotide)	Percent change in STAT3 mRNA expression in A549 cells by duplex antisense compounds ([5]; 50 nM oligonucleotide)	Percent change in STAT3 mRNA expression in A549 cells by duplex antisense compounds ([5]; 100 nM oligonucleotide) [%]	Percent change in STAT3 mRNA expression in A549 cells by duplex antisense compounds ([5]; 200 nM oligonucleotide) [%]	Percent change in STAT3 mRNA expression in A549 cells by duplex antisense compounds ([5]; 400 nM oligonucleotide) [%]
GCTCCAGCATCTGCTGCTTC (antisense eG*e[5mC]*eT*e[5mC]*e[5mC]*dA*dG*d[5mC]*dA*dT*d[5mC]*dT*dG*d[5mC]*dT*eG*e[5mC]*eT*eT*e[5mC]) [ISIS 113176]	potently inhibit STAT3 mRNA expression	suppressed	suppressed	–	–	–	–	–	–	–	–	–	–	–	–	–	–	–
ACTCAAACTGCCCTCCTGCT (listed as DNA, chemistry not fully specified) [ISIS 17148]	potently inhibit STAT3 mRNA expression	–	–	6	17	24	increased levels of annexin V staining	–	–	–	–	–	–	–	–	–	–	–
113176 (antisense eG*e[5mC]*eT*e[5mC]*e[5mC]*dA*dG*d[5mC]*dA*dT*d[5mC]*dT*dG*d[5mC]*dT*eG*e[5mC]*eT*eT*e[5mC]) [compound 113176]	–	–	–	–	–	–	increased levels of annexin V staining	33	67	79	27.7	72.3	+8%	+17%	+6%	0	−22	−34
